Experimental data from US20110028504A1, “Formulation of radioprotective alpha beta unsaturated aryl sulfones” (ONCONOVA THERAPEUTICS, INC., priority 2005, published 2011).

Experiments:
HFL-1 cells = test: Radioprotection of cultured normal cells, colony count after ionizing radiation; assay type: cell-based, human; details: 2.5 to 20 micromolar for 24 hrs before 10 Gy or 15 Gy ionizing radiation, colonies vs DMSO control
Method: HFL-1 cells, which are normal diploid lung fibroblasts, were plated into 24 well dishes at a cell density of 3000 cells per 10 mm^2 in DMEM completed with 10% fetal bovine serum and antibiotics. The test compounds listed in Table 28 were added to the cells 24 hours later in select concentrations from 2.5 to 20 micromolar, inclusive, using DMSO as a solvent. Control cells were treated with DMSO alone. The cells were exposed to the test compound or DMSO for 24 hrs. The cells were then irradiated with either 10 Gy (gray) or 15 Gy of ionizing radiation (IR) using a J.L. Shepherd Mark I, Model 30-1 Irradiator equipped with ^137cesium as a source.
After irradiation, the medium on the test and control cells was removed and replaced with fresh growth medium without the test compounds or DMSO. The irradiated cells were incubated for 96 hours and duplicate wells were trypsinized and replated onto 100 mm^2 tissue culture dishes. The replated cells were grown under normal conditions with one change of fresh medium for 3 weeks. The number of colonies from each 100 mm^2 culture dish, which represents the number of surviving cells, was determined by staining the dishes as described below.
To visualize and count the colonies derived from the clonal outgrowth of individual radioprotected cells, the medium was removed and the plates were washed one time with room temperature phosphate buffered saline. The cells were stained with a 1:10 diluted Modified Giemsa staining solution (Sigma) for 20 minutes. The stain was removed, and the plates were washed with tap water. The plates were air dried, the number of colonies from each plate were counted and the average from duplicate plates was determined.
A “+” indicates radioprotective activity of between 2- and 4.5-fold at the concentrations tested. Fold protection was determined by dividing the average number of colonies from the test plates by the average number of colonies on the control plates.

C57 black mice = test: Protection of mice from radiation toxicity by pre-treatment; assay type: in vivo
Method: C57 black mice age 10-12 weeks (Taconic) were divided into two treatment groups of 10 mice each. One group, designated the “200×2” group, received intraperitoneal injections of 200 micrograms (E)-4-carboxystyryl-4-chlorobenzylsulfone dissolved in DMSO (a 10 mg/Kg dose, based on 20 g mice) 18 and 6 hours before irradiation with 8 Gy gamma radiation. The other group, designated “500×2,” received intraperitoneal injections of 500 micrograms (E)-4-carboxystyryl-4-chlorobenzylsulfone dissolved in DMSO (a 25 mg/Kg dose, based on 20 g mice) 18 and 6 hours before irradiation with 8 Gy gamma radiation. A control group of 16 animals received 8 Gy gamma radiation alone.

rodent species = details: in vivo; cited from earlier work

Row | Compound | Activity (radioprotective activity, fold protection) (HFL-1 cells) | further results
1 | O=S(=O)(/C=C/c1ccoc1)Cc1ccc(Cl)cc1Cl [Compound 8, (E)-3-Furanethenyl-2,4-dichlorobenzylsulfone] | + (A “+” indicates radioprotective activity of between 2- and 4.5-fold at the concentrations tested) | –
2 | O=C(O)c1ccc(/C=C/S(=O)(=O)Cc2ccc(Cl)cc2)cc1 [Compound 13, (E)-4-Carboxystyryl-4-chlorobenzylsulfone] | + (A “+” indicates radioprotective activity of between 2- and 4.5-fold at the concentrations tested) | maximum mortality rate by day 40 (C57 black mice; “200×2” group: 10 mg/Kg intraperitoneal 18 and 6 hours before 8 Gy gamma radiation): approximately 60%; mice dead at day 20 (C57 black mice; “200×2” group: 10 mg/Kg intraperitoneal 18 and 6 hours before 8 Gy gamma radiation (control 80%)): about 50%; maximum mortality rate by day 40 (C57 black mice; “500×2” group: 25 mg/Kg intraperitoneal 18 and 6 hours before 8 Gy gamma radiation): about 50%; mice dead at day 20 (C57 black mice; “500×2” group: 25 mg/Kg intraperitoneal 18 and 6 hours before 8 Gy gamma radiation (control 80%)): about 30%
3 | (E)-2,4,6-Trimethoxystyryl-4-methoxybenzylsulfone [Compound 2] | + (A “+” indicates radioprotective activity of between 2- and 4.5-fold at the concentrations tested) | –
4 | Hydroxypropyl-B-Cyclodextrin [HPCD] | – | toxicity (rodent species): non-toxic
5 | O=S(=O)(/C=C\c1ccc(F)cc1)Cc1ccc(Cl)cc1 [Compound 7, (Z)-4-Fluorostyryl-4-chlorobenzylsulfone] | + (A “+” indicates radioprotective activity of between 2- and 4.5-fold at the concentrations tested) | –
6 | (Z)-Styryl-(E)-2-methoxy-4-ethoxystyrylsulfone [Compound 11] | + (A “+” indicates radioprotective activity of between 2- and 4.5-fold at the concentrations tested) | –
7 | (E)-4-Fluorostyryl-4-chlorophenylsulfone [Compound 10] | + (A “+” indicates radioprotective activity of between 2- and 4.5-fold at the concentrations tested) | –
8 | O=S(=O)(/C=C/c1ccc(F)cc1)Cc1ccc(Cl)cc1 [Compound 1, (E)-4-Fluorostyryl-4-chlorobenzylsulfone] | + (A “+” indicates radioprotective activity of between 2- and 4.5-fold at the concentrations tested) | –
9 | (E)-4-Fluorostyryl-4-cyanobenzylsulfone [Compound 6] | + (A “+” indicates radioprotective activity of between 2- and 4.5-fold at the concentrations tested) | –
10 | (E)-4-Fluorostyryl-4-trifluoromethylbenzylsulfone [Compound 5] | + (A “+” indicates radioprotective activity of between 2- and 4.5-fold at the concentrations tested) | –
